In US20240245696A1, “INHIBITORS OF DNA PK AND USES THEREOF” (BioVentures, LLC, priority 2017, published 2024):
Entries after “also recorded” stand apart in the source; their conditions may differ.

How the values were obtained:
NFAT = experiment: Immunofluorescence of NFAT nuclear translocation in Jurkat cells; assay type: cell-based, human; parameters: dose or concentration left out as unconfirmed; settings: Jurkat activated with PMA+PHA, inhibitor
Method: Immunofluorescence of NFAT: Jurkat cells were plated in poly-lysine treated 35 mm dish with glass-bottom (BioTek) overnight. The cells were fixed with 4% formaldehyde and permeabilized with permeabilization solution (0.2% TRITON X-100+OVA solution (0.1 mg/mL), 0.01% sodium azide). NFAT was probed with anti-NFAT2 (ab2796, Abcam) in permeabilization solution overnight at 4° C., and then washed with PBS. Fluorescein (FITC)-conjugated AffiniPure Donkey Anti-Mouse IgG (715-095-151, Jackson ImmunoResearch) was applied to the cells for 1 hour at room temperature. The cells were washed with PBS and ProLong Antifade reagent with DAPI (Molecular Probes) was applied. All samples were analyzed on an Olympus Fluoview FV1000 laser confocal microscope. Images from all microscopy experiments were processed using the FV10-ASW 3.1 Viewer (Olympus).

mTOR = mTOR (phospho-ser2448) ELISA and western blot in activated Jurkat cells; assay type: cell-based, human
Method: Western blot analysis: Nuclear extract lysates were separated on 3-8% Tris-Acetate gels (Invitrogen). Total cell lysates were separated on 4-20% Tris-Glycine gels (Bio-Rad). Gels were transferred onto PVDF membrane (Millipore) for 2 hours in the cold room at 100V. Immunoblotting was performed using following antibodies: pDNA-PKcs at S2056 (ab18192, Abcam), DNAPK (ab53701, Abcam), pNFAT2 at S237 (ab183023, Abcam), CABIN1 (12660S, Cell signaling), GAPDH (MAB374, Millipore), and Lamin B1 (ab16048, Abcam). HRP-conjugated secondary antibody anti-Rabbit and anti-Mouse (7074S and 7076S, Cell Signaling) was used.
Detection of calcineurin and mTOR activities: Calcineurin phosphatase activity was detected by Calcineurin Cellular Activity Assay Kit from Millipore (Billerica, MA) and mTOR signaling was detected by Calcium Detection Kit from Abcam (Cambridge, MA). The manufacturer's protocols were followed. Briefly, Jurkat cells (2 million cells/mL) were lysed using lysis buffer. For calcineurin activity, the cell lysates were desalted by gel filtration to remove free phosphates before the assay and were subjected to calcineurin activity assay. The absorbance of each sample was read at 620 nm using the plate reader. […] The absorbance of each sample was read at 450 nm using the plate reader.

Ca^2+ = experiment: Calcium ion measurement in Jurkat cell lysates; assay type: cell-based, human; settings: Jurkat cell lysates following activation with PMA+PHA
Method: Measurements of calcium ions: Intracellular concentration of calcium ions was measured by Calcium Detection Assay Kit from Abcam (Cambridge, MA). The manufacturer's protocols were followed. Briefly, Jurkat cells (2 million cells/mL) were lysed using cold PBS with 0.1% NP-40. The cell lysates were diluted 10 times before use. After following the assay protocol, the absorbance of each sample was read at 575 nm using the plate reader.

PD-1 = experiment: qPCR of PD-1 expression in stimulated Jurkat cells; assay type: cell-based, human; settings: PHA+PMA stimulation
Method: Evaluation of PD-1 and IL-2 expression: The effect of NU7441 on the expression of PD-1, a protein with immunosuppressant function, and IL-2 was examined in Jurkat cells following stimulation with PHA+PMA and treatment with the inhibitor NU7441. qPCR analysis was performed using primers specific for PD1 and IL-2 sequences.

calcineurin = experiment: Calcineurin Cellular Activity Assay in Jurkat cell lysates; assay type: cell-based, human; settings: Jurkat activated with PMA+PHA, NU7441 2.5 µM
Description: Detection of calcineurin and mTOR activities: Calcineurin phosphatase activity was detected by Calcineurin Cellular Activity Assay Kit from Millipore (Billerica, MA) and mTOR signaling was detected by Calcium Detection Kit from Abcam (Cambridge, MA). The manufacturer's protocols were followed. Briefly, Jurkat cells (2 million cells/mL) were lysed using lysis buffer. For calcineurin activity, the cell lysates were desalted by gel filtration to remove free phosphates before the assay and were subjected to calcineurin activity assay. The absorbance of each sample was read at 620 nm using the plate reader. For mTOR ELISA assay, the cell lysates were added to each well and antibody against phosphorylated mTOR at serine 2448 was used to detect the activity of mTOR signaling. The absorbance of each sample was read at 450 nm using the plate reader.

IL-2 = experiment: Secreted IL-2 ELISA, PBMCs stimulated with PHA+PMA; assay type: cell-based, human; settings: PBMC, activation with PMA+PHA
Method: Cell Culture: Human peripheral blood mononuclear cells (PBMC,) and Jurkat cells were purchased from ATCC (PCS-800-011, Manassas, VA). Cells were maintained at 37° C. in a humidified atmosphere composed of 5% CO2. Jurkat cells were cultured in RPMI 1640 medium which was supplemented with 10% FCS and human PBMC was cultured in RPMI 1640 medium which was supplemented with 10% FCS and pen/strep. Both Jurkat cells and PBMC were stimulated with PHA (50 ng/mL) and PMA (1 μg/mL) for 24 hours prior to harvesting for IL-2 detection or 6 hours prior for western blot analysis. The NU7441 DNA-PKcs inhibitor was added at varying concentrations at the time of stimulation. Detection of secreted IL-2: Secreted IL-2 was detected by Human IL-2 ELISA Kit from Thermo Scientific (Waltham, MA). The manufacturer's protocol was followed. Prior to harvesting, cells were treated with PHA (50 ng/ml) and PMA (1 μg/mL) for 24 hours with or without the NU7441 inhibitor. Jurkat cells stimulated with the anti-CD28/CD3 dynabeads were done so according to the manufacturer's protocol at a 1:1 ratio for 24 hours prior to harvesting. After stimulation, supernatant samples of Jurkat cells or PBMCs (2 million cells/mL) were collected and diluted 10 times before the assay. […] Stop solution was added and the absorbance of each well was read at 450 nm using the plate reader.

DNA-PKcs = DNA-PKcs (Homo sapiens, UniProt P78527); experiment: Western blot of phosphorylated DNA-PKcs (s2056) in activated Jurkat cells; assay type: cell-based; parameters: host or cells: Jurkat cells; settings: Jurkat activated with PMA+PHA
Method: Cell Culture: Human peripheral blood mononuclear cells (PBMC,) and Jurkat cells were purchased from ATCC (PCS-800-011, Manassas, VA). Cells were maintained at 37° C. in a humidified atmosphere composed of 5% CO2. […] Both Jurkat cells and PBMC were stimulated with PHA (50 ng/mL) and PMA (1 μg/mL) for 24 hours prior to harvesting for IL-2 detection or 6 hours prior for western blot analysis. The NU7441 DNA-PKcs inhibitor was added at varying concentrations at the time of stimulation.
Cell lysis and nuclear extract: Cells were washed with cold PBS twice and centrifuged at 5000 rpm for 5 minutes. For the nuclear extract, pellets were suspended with 800 μL of 10 mN HEPES lysis buffer (10 mM HEPES at pH 7.9, 10 mM KCl, 1 mM DTT, and 1× protease and phosphatase inhibitor) and incubated on ice for 15 minutes. 50 μL of NP-40 (10% in water) was added and the pellets were mixed for 10 seconds. Lysates were centrifuged for 5 minutes at 4° C. at 13,000 rpm. The supernatant solution which is containing the cytosolic fraction was discarded and the pellets were resuspended in 20 mM HEPES lysis buffer (20 mM HEPES at pH 7.9, 0.4 M NaCl, 1 mM DTT, and 1× protease, and phosphatase inhibitor) and incubated on ice for 15 minutes with intermittent mixing. Lysates were centrifuged for 10 minutes at 4° C. at 13,000 rpm. […]

O=c1cc(N2CCOCC2)oc2c(-c3cccc4c3sc3ccccc34)cccc12 [NU7441]
nuclear localization of NFAT (NFAT): nuclear localization was prevented; also recorded: blocked translocation of NFAT to the nucleus | mTOR activation (phosphorylated ser2448) (mTOR): did not alter mTOR activation; also recorded: does not alter mTOR activation | concentration of Ca^2+ ions (Ca^2+): no change; also recorded: not affected | expression level of PD-1 (PD-1): did not alter | calcineurin phosphatase activity (calcineurin): significantly inhibited; also recorded: significant reduction in calcineurin activity | level of IL-2 produced (IL-2): significantly reduce IL-2 production | DNA-PKcs phosphorylation (s2056) (DNA-PKcs): effectively inhibited DNA-PKcs phosphorylation | DNA-PKcs phosphorylation (s2056) (DNA-PKcs; listed as NU744): reduced
